Results published in patent publication US12209092B2, “Inhibitors of GLI1 as therapeutic agents” (NEW YORK UNIVERSITY, priority 2018, dated 2025).
Read-outs that look alike come from different tables or passages of the source.

Tested on: Gli1-mediated transcription
Test: Gli1-mediated transcriptional luciferase reporter assay
Assay type: cell-based
Details: Shh-LIGHT2 cells, antagonist mode, purmorphamine 1.5 μM stimulation, 24 h
Protocol: Gli1-mediated transcriptional luciferase reporter assay was performed using Shh-LIGHT2 cells in order to evaluate the effects on activation and inhibition of Gli1-mediated transcription by the compounds of the disclosure. Brief assay procedure is provided below. […] Shh-LIGHT2 cells were harvested from about 80% confluent 10-cm dish using 0.25% Trypsin-EDTA solution. Medium was removed, and cells were washed with 5 mL DPBS and aspirated. Then, 1 mL 0.25% Trypsin-EDTA solution was added to a 10-cm dish. The dish was placed in the incubator for 1-3 minutes, or until cells have detached. 3 mL of cell growth medium (DMEM, 10% FBS, 1% PenStrep, 1% sodium pyruvate, and 1% GlutaMax) was added to the 10-cm dish, and the contents were transferred to a conical tube. […] The cell assay plate was removed from incubator after cells reached confluency. The culture medium was then manually removed from the cell plates, and the plates were centrifuged at 200 rpm for 30 seconds. […] After 30 min incubation of antagonist, cells were stimulated with agonist (purmorphamine, 5 μL, 1.5 μM final), then incubate for 24 h at 37° C./5% CO2. […] Luciferase assay: After incubation, the cell assay plate was allowed to acclimate to room temperature. Then, 20 μL of Duo-Glo® Luciferase Reagent (Promega) was added to each well of cell assay plate. The plate was briefly spun down, mixed, and incubated for 30 minutes at room temperature. The cell plate was read using luminometer for firefly luminescence activity. Then, 20 μL of Duo-Glo® Step&Glo® Reagent (Promega) was added to each well of cell assay plate. The plate was briefly spun down, mixed, and incubated for 30 minutes at room temperature. The cell plate was read using luminometer for Renilla luminescence activity. Ratio of firefly: Renilla luminescence was calculated for each well. The compound well ratio was normalized to the ratio from a control well.

[1] = firefly luminescence, read-out: Gli1 IC50 firefly
[2] = ratio of firefly:Renilla luminescence, read-out: Gli1 IC50 firefly:Renilla ratio

Structure (SMILES) | IC50 [1] [nM] | IC50 [2] [nM]
COc1ccc(-c2nc3c([nH]2)CN(C2CCc4ccc(Cl)cc4C2)CC3)c(Cl)c1 (stereo not drawn) [Example 23, 5-(7-chloro-1,2,3,4-tetrahydronaphthalen-2-yl)-2-(2-chloro-4-methoxyphenyl)-4,5,6,7-tetrahydro-3H-imidazo[4,5-c]pyridine] | < 100 | < 100
COc1ccc(Cl)c(-c2nc3c([nH]2)CN(C2CCc4ccc(Cl)cc4C2)CC3)c1 (stereo not drawn) [Example 24, 5-(7-chloro-1,2,3,4-tetrahydronaphthalen-2-yl)-2-(2-chloro-5-methoxyphenyl)-4,5,6,7-tetrahydro-3H-imidazo[4,5-c]pyridine] | 100 to 490 | < 100
Clc1cc(Cl)c2c(c1)CCC(N1CCc3nc(-c4ccccc4Cl)[nH]c3C1)C2 (stereo not drawn) [Example 25, 2-(2-chlorophenyl)-5-(6,8-dichloro-1,2,3,4-tetrahydronaphthalen-2-yl)-4,5,6,7-tetrahydro-3H-imidazo[4,5-c]pyridine] | 1000 to 50000 | 1000 to 50000
Clc1ccccc1-c1nc2c([nH]1)CN(C1CCc3cccc(Br)c3C1)CC2 (stereo not drawn) [Example 26, 5-(8-bromo-1,2,3,4-tetrahydronaphthalen-2-yl)-2-(2-chlorophenyl)-4,5,6,7-tetrahydro-3H-imidazo[4,5-c]pyridine] | < 100 | 100 to 490
Clc1ccccc1-c1nc2c([nH]1)CN(C1CCc3ccc(Br)cc3C1)CC2 (stereo not drawn) [Example 27, 5-(7-bromo-1,2,3,4-tetrahydronaphthalen-2-yl)-2-(2-chlorophenyl)-4,5,6,7-tetrahydro-3H-imidazo[4,5-c]pyridine] | 100 to 490 | < 100
Clc1ccc2c(c1)CC(N1CCc3nc(-c4ccccc4Br)[nH]c3C1)CC2 (stereo not drawn) [Example 28, 2-(2-bromophenyl)-5-(7-chloro-1,2,3,4-tetrahydronaphthalen-2-yl)-4,5,6,7-tetrahydro-3H-imidazo[4,5-c]pyridine] | 100 to 490 | 100 to 490
Clc1ccc2c(c1)CC(N1CCc3nc(-c4ccc(Br)cc4Cl)[nH]c3C1)CC2 (stereo not drawn) [Example 29, 2-(4-bromo-2-chlorophenyl)-5-(7-chloro-1,2,3,4-tetrahydronaphthalen-2-yl)-4,5,6,7-tetrahydro-3H-imidazo[4,5-c]pyridine] | 500 to 990 | 100 to 490
Clc1ccc2c(c1)CC(N1CCc3nc(-c4cc(Br)ccc4Cl)[nH]c3C1)CC2 (stereo not drawn) [Example 30, 2-(5-bromo-2-chlorophenyl)-5-(7-chloro-1,2,3,4-tetrahydronaphthalen-2-yl)-4,5,6,7-tetrahydro-3H-imidazo[4,5-c]pyridine] | 1000 to 50000 | 500 to 990
Clc1ccccc1-c1nc2c([nH]1)CN(C1CCc3cc(C4CC4)ccc3C1)CC2 (stereo not drawn) [Example 31, 2-(2-chlorophenyl)-5-(6-cyclopropyl-1,2,3,4-tetrahydronaphthalen-2-yl)-4,5,6,7-tetrahydro-3H-imidazo[4,5-c]pyridine] | 1000 to 50000 | 500 to 990
Cc1cn(-c2ccc3c(c2)CCC(N2CCc4nc(-c5ccccc5Cl)[nH]c4C2)C3)cn1 (stereo not drawn) [Example 32, 2-(2-chlorophenyl)-5-(6-(4-methyl-1H-imidazol-1-yl)-1,2,3,4-tetrahydronaphthalen-2-yl)-4,5,6,7-tetrahydro-3H-imidazo[4,5-c]pyridine] | 1000 to 50000 | 1000 to 50000
Clc1ccccc1-c1nc2c([nH]1)CN(C1CCc3ccc(C4CC4)cc3C1)CC2 (stereo not drawn) [Example 34, 2-(2-chlorophenyl)-5-(7-cyclopropyl-1,2,3,4-tetrahydronaphthalen-2-yl)-4,5,6,7-tetrahydro-3H-imidazo[4,5-c]pyridine] | 100 to 490 | 100 to 490
Clc1ccccc1-c1nc2c([nH]1)CN(C1CCc3ccc(C#CC4CC4)cc3C1)CC2 (stereo not drawn) [Example 35, 2-(2-chlorophenyl)-5-(7-(cyclopropylethynyl)-1,2,3,4-tetrahydronaphthalen-2-yl)-4,5,6,7-tetrahydro-3H-imidazo[4,5-c]pyridine] | 1000 to 50000 | 1000 to 50000
Clc1ccccc1-c1nc2c([nH]1)CN(C1CCc3cccc(C4CC4)c3C1)CC2 (stereo not drawn) [Example 36, 2-(2-chlorophenyl)-5-(8-cyclopropyl-1,2,3,4-tetrahydronaphthalen-2-yl)-4,5,6,7-tetrahydro-3H-imidazo[4,5-c]pyridine] | 1000 to 50000 | 500 to 990
Clc1ccc2c(c1)CC(N1CCc3nc(-c4ccc(C5CC5)cc4Cl)[nH]c3C1)CC2 (stereo not drawn) [Example 37, 5-(7-chloro-1,2,3,4-tetrahydronaphthalen-2-yl)-2-(2-chloro-4-cyclopropylphenyl)-4,5,6,7-tetrahydro-3H-imidazo[4,5-c]pyridine] | < 100 | < 100
Clc1cccc(-c2nc3c([nH]2)CN(C2CCc4ccc(Cl)cc4C2)CC3)c1 (stereo not drawn) [Example 42, 5-(7-chloro-1,2,3,4-tetrahydronaphthalen-2-yl)-2-(3-chlorophenyl)-4,5,6,7-tetrahydro-3H-imidazo[4,5-c]pyridine] | 1000 to 50000 | 1000 to 50000
Clc1ccccc1-c1nc2c([nH]1)CN(C1Cc3ccccc31)CC2 (stereo not drawn) [Example 43, 5-(bicyclo[4.2.0]octa-1(6),2,4-trien-7-yl)-2-(2-chlorophenyl)-4,5,6,7-tetrahydro-3H-imidazo[4,5-c]pyridine] | > 30000 | 1000 to 50000
Fc1cccc(-c2nc3c([nH]2)CN(C2CCc4ccc(F)cc4C2)CC3)c1 (stereo not drawn) [Example 51, 5-(7-fluoro-1,2,3,4-tetrahydronaphthalen-2-yl)-2-(3-fluorophenyl)-4,5,6,7-tetrahydro-3H-imidazo[4,5-c]pyridine] | 1000 to 50000 | 1000 to 50000
Fc1ccccc1-c1nc2c([nH]1)CN(C1CCc3ncccc3C1)CC2 (stereo not drawn) [Example 55, 6-(2-(2-fluorophenyl)-3,4,6,7-tetrahydro-5H-imidazo[4,5-c]pyridin-5-yl)-5,6,7,8-tetrahydroquinoline] | 1000 to 50000 | 1000 to 50000
Fc1ccccc1-c1nc2c([nH]1)CN(C1CCc3cc(Cl)ccc3C1)CC2 (stereo not drawn) [Example 70, 5-(6-chloro-1,2,3,4-tetrahydronaphthalen-2-yl)-2-(2-fluorophenyl)-4,5,6,7-tetrahydro-3H-imidazo[4,5-c]pyridine] | 1000 to 50000 | 1000 to 50000
Fc1cc2c(cc1F)CC(N1CCc3nc(-c4ccccc4F)[nH]c3C1)CC2 (stereo not drawn) [Example 72, 5-(6,7-difluoro-1,2,3,4-tetrahydronaphthalen-2-yl)-2-(2-fluorophenyl)-4,5,6,7-tetrahydro-3H-imidazo[4,5-c]pyridine] | 1000 to 50000 | 1000 to 50000
Fc1cc(F)c2c(c1)CC(N1CCc3nc(-c4ccccc4F)[nH]c3C1)CC2 (stereo not drawn) [Example 73, 5-(5,7-difluoro-1,2,3,4-tetrahydronaphthalen-2-yl)-2-(2-fluorophenyl)-4,5,6,7-tetrahydro-3H-imidazo[4,5-c]pyridine] | > 30000 | > 30000
Clc1cccnc1-c1nc2c([nH]1)CN(C1CCc3cccc(Cl)c3C1)CC2 (stereo not drawn) [Example 77, 5-(8-chloro-1,2,3,4-tetrahydronaphthalen-2-yl)-2-(3-chloropyridin-.2-yl)-4,5,6,7-tetrahydro-3H-imidazo[4,5-c]pyndine] | 1000 to 50000 | 1000 to 50000
Clc1cccc2c1CC(N1CCc3nc(-c4ccccn4)[nH]c3C1)CC2 (stereo not drawn) [Example 78, 5-(8-chloro-1,2,3,4-tetrahydronaphthalen-2-yl)-2-(pyridin-2-yl)-4,5,6,7-tetrahydro-3H-imidazo[4,5-c]pyridine] | 1000 to 50000 | 1000 to 50000
Clc1ccccc1-c1nc2c([nH]1)CN(C1CCc3cccc(Cl)c31)CC2 (stereo not drawn) [Example 106, 5-(7-chloro-2,3-dihydro-1H-inden-1-yl)-2-(2-chlorophenyl)-4,5,6,7-tetrahydro-3H-imidazo[4,5-c]pyridine] | 1000 to 50000 | 1000 to 50000
Clc1ccccc1-c1nc2c([nH]1)CN(C1CCc3cc(Br)ccc3C1)CC2 (stereo not drawn) [Example 109, 5-(6-bromo-1,2,3,4-tetrahydronaphthalen-2-yl)-2-(2-chlorophenyl)-4,5,6,7-tetrahydro-3H-imidazo[4,5-c]pyridine] | 1000 to 50000 | 1000 to 50000
COc1cccc2c1CC(N1CCc3nc(-c4ccccc4Cl)n(CCO)c3C1)CC2 (stereo not drawn) [Example 130, 2-(2-(2-chlorophenyl)-5-(8-methoxy-1,2,3,4-tetrahydronaphthalen-2-yl)-4,5,6,7-tetrahydro-3H-imidazo[4,5-c]pyridin-3-yl)ethan-1-ol] | 1000 to 50000 | 1000 to 50000
Cn1c(-c2ccccc2Cl)nc2c1CN(C1CCc3cccc(C4CC4)c3C1)CC2 (stereo not drawn) [Example 161, 2-(2-chlorophenyl)-5-(8-cyclopropyl-1,2,3,4-tetrahydronaphthalen-2-yl)-3-methyl-4,5,6,7-tetrahydro-3H-imidazo[4,5-c]pyridine] | 100 to 490 | 100 to 490
